For this assay, the system named is GDF8 signaling (p-SMAD-3 (Ser423/425)). In words: AlphaScreen SureFire SMAD3 (p-Ser423/425) assay, GDF8-stimulated cells (GDF pSMAD). It is filed as cell-based. To be noted: Mus musculus, MPC-11, MPC11; GDF8-stimulated; p-SMAD3 AlphaScreen; read-out: GDF pSMAD (MPC11) (inhibition of GDF8 signaling). An excerpt:
Biological Example 1: AlphaScreen® SureFire® SMAD3 (p-Ser423/425) Assay
The p-SMAD-3 (Ser423/425) SureFire® assay has been designed to measure the phosphorylation of endogenous cellular p-SMAD-3 (Ser423/425) in cell lysates and is a system for the screening of both modulators of receptor activation (e.g. agonists and antagonists) as well as agents acting intracellularly, such as small molecule inhibitors of upstream events. The assay will measure p-SMAD-3 (Ser423/425) activation by either cloned or endogenous receptors, and can be applied to primary cells.
P-SMAD-3 (Ser423/425) SureFire® Assay Protocols
Step A: Preparation of Buffers
1× Lysis buffer: 1 ml of 5× Lysis buffer was diluted with 4 ml of sterile water. After dilution, excess 1× Lysis buffer can be frozen and thawed up to 5 times without loss in activity.
Activation buffer: The buffer was warmed slowly to 37° C. and gently mixed to re-suspend. Activation buffer can be stored at room temperature with no loss in activity.
Reaction buffer: The buffer was kept at 4° C. while in use.
AlphaScreen® Protein A IgG Kit: The kit was stored at 4° C. in the dark.
Reaction buffer+Activation buffer+AlphaScreen® Acceptor beads: Reaction buffer (40 parts), Activation Buffer (10 parts) and Acceptor beads (1 part) were mixed and the mixture was stored at room temperature and used the same day. Mixture was added to 384-well plates; excess mixture was discarded.
Dilution buffer+AlphaScreen® Donor beads: Dilution buffer (20 parts) and Donor beads (1 part) were mixed and the mixture was stored at room temperature and used the same day. Excess mixture was discarded.
Assay control samples: After reconstitution in 250 μl of water, lysates were at −20° C. in single use aliquots.
Step B: Preparation of Samples and Cells
96-well Assay Protocol for 293FT and RMS13 adherent cells can be carried out manually or in high throughput with liquid handling robots.
The cells (80 μL of cells for 96 well plates) were plated in collagen coated tissue culture plates in RPMI or FreeStyle medium (Invitrogen) and incubated overnight. For manual analysis, 6 plates for GDF8, 6 plates for TGFβ, and optionally 6 plates for AlkSca(ALK5 constitutively active) were used.
The compound dilution plates were prepared as follows: 12 μL of DMSO was transferred into first column of 96-well plate, and 16 μL of DMSO was transferred into columns 2-12 of the 96-well plate. 12 μL of compound solution was transferred into first column of the DMSO-containing 96-well plate. Three-fold dilution was performed up to column 10 of the DMSO-containing 96-well plate.
Step C: Treatment and Analysis
The plate containing cells were treated with compounds for about 10 minutes, and then ligand was added. GDF8 or TGFb was added to plates to stimulate. 293FL cells were stimulated for 90 minutes at 37° C.; and RMS13 cells were stimulated for 60 minutes at 37° C. The medium was then removed from the cells, and 1× Lysis Buffer (about 25 μL) was added and the plate was gently agitated on plate shaker for 5-10 minutes.
The lysate (5 μL) was then placed into 384-well shallow plates avoiding the generation of bubbles. To this, the Reaction Buffer+Activation Buffer+AlphaScreen® Acceptor beads mixture (5 μL) was added. The plate was sealed with adhesive cover and shielded from light (e.g., with metal foil), and agitated gently on plate shaker for 2 hours at room temperature.
Dilution buffer+AlphaScreen® Donor beads (2 μL) was then added, and the plate was intubated on the plate shaker for an additional 1½ hours. After completion, the plate was read on Synergy-4 or Enspire plate reader, using AlphaScreen® pSMAD3® settings.
Representative results for inhibition of GDF8 signaling are shown in Table 2(data=GDF pSMAD (MPC11) (μM)): […]

The values below come from patent publication US10858335B2 (Rigel Pharmaceuticals, Inc., priority 2014, dated 2020).

Structures are written as SMILES.

As for `Cc1cc(-c2ncccc2-c2ccc3ncc(C(C)O)n3c2)ccc1F` (racemic) [compound 598, rac-1-(6-(2-(4-Fluoro-3-methylphenyl)pyridin-3-yl)imidazo[1,2-a]pyridin-3-yl)ethan-1-ol], the IC50 is 2050 nM. Take `Cc1cc(-c2ncccc2-c2ccc3ncc(C(=O)NC4CC5CCC(C4)N5C)n3c2)ccc1F` (racemic) [compound 711, rac-6-(2-(4-Fluoro-3-methylphenyl)pyridin-3-yl)-N-(8-methyl-8-azabicyclo[3.2.1]octan-3-yl)imidazo[1,2-a]pyridine-3-carboxamide]: the IC50 is 9280 nM. For `Cc1cc(-c2ncccc2-c2ccn3ncc(C(=O)NC4CC5CCC(C4)N5C)c3c2)ccc1F` (racemic) [compound 714, rac-5-(2-(4-Fluoro-3-methylphenyl)pyridin-3-yl)-N-(8-methyl-8-azabicyclo[3.2.1]octan-3-yl)pyrazolo[1,5-a]pyridine-3-carboxamide], the IC50 worked out at 5660 nM. In the case of `CCOc1cnc(-c2ccc(F)c(C)c2)c(-c2ccc3[nH]ncc3c2)c1` [Compound 1, 5-(5-Ethoxy-2-(4-fluoro-3-methylphenyl)pyridin-3-yl)-1H-indazole], the IC50 amounted to 1650 nM. For `CCOc1cnc(-c2cccc(C)c2)c(-c2ccc3[nH]ncc3c2)c1` [Compound 3, 5-(5-Ethoxy-2-m-tolylpyridin-3-yl)-1H-indazole], the IC50 came out at 1300 nM.

In the case of `CCOc1cnc(-c2ccc(F)cc2)c(-c2ccc3[nH]ncc3c2)c1` [Compound 6, 5-(5-Ethoxy-2-(4-fluorophenyl)pyridin-3-yl)-1H-indazole], the IC50 was determined as 18600 nM. Under `CCOc1cnc(-c2ccc(F)c(F)c2)c(-c2ccc3[nH]ncc3c2)c1` [Compound 7, 5-(5-Ethoxy-2-(3,4-difluorophenyl)pyridin-3-yl)-1H-indazole] stands 23100 nM. For `COc1cnc(-c2ccc(F)c(C)c2)c(-c2ccc3[nH]ncc3c2)c1` [Compound 8, 5-(2-(4-Fluoro-3-methylphenyl)-5-methoxypyridin-3-yl)-1H-indazole], the IC50 turned out to be 5350 nM. As to `Cc1cc(-c2ncc(Cl)cc2-c2ccc3[nH]ncc3c2)ccc1F` [Compound 9, 5-(5-Chloro-2-(4-fluoro-3-methylphenyl)pyridin-3-yl)-1H-indazole], the IC50 came out at 5140 nM.

As to `Cc1cnc(-c2ccc(F)c(C)c2)c(-c2ccc3[nH]ncc3c2)c1` [Compound 11, 5-(2-(4-Fluoro-3-methylphenyl)-5-methylpyridin-3-yl)-1H-indazole], the IC50 is 594 nM. Take `Cc1ccc(-c2ccc3[nH]ncc3c2)c(-c2ccc(F)c(C)c2)n1` [Compound 12, 5-(2-(4-Fluoro-3-methylphenyl)-6-methylpyridin-3-yl)-1H-indazole]: the IC50 was 18900 nM.

For the compound `Nc1cnc(-c2cccc(C3CC3)c2)c(-c2ccc3[nH]ncc3c2)c1` [Compound 15, 6-(3-Cyclopropylphenyl)-5-(1H-indazol-5-yl)pyridin-3-amine], the IC50 is 64.9 nM.

For the compound `CC(C)c1cccc(-c2ncc(N)cc2-c2ccc3[nH]ncc3c2)c1` [Compound 16, 5-(1H-Indazol-5-yl)-6-(3-isopropylphenyl)pyridin-3-amine], the IC50 was determined as 6340 nM. On to `Cc1cc(-c2ncc(N)cc2-c2ccc3[nH]ncc3c2)ccc1F` [Compound 17, 6-(4-Fluoro-3-methylphenyl)-5-(1H-indazol-5-yl)pyridin-3-amine], for which the IC50 was 336 nM. For `Cc1cc(-c2ncc(N)cc2-c2ccc3ncsc3c2)ccc1F` [Compound 18, 5-(Benzo[d]thiazol-6-yl)-6-(4-fluoro-3-methylphenyl)pyridin-3-amine], the IC50 was determined as 142 nM. As for `Nc1cnc(-c2cccc(C3CC3)c2)c(-c2ccc3ncsc3c2)c1` [Compound 19, 5-(Benzo[d]thiazol-6-yl)-6-(3-cyclopropylphenyl)pyridin-3-amine], the IC50 is 83 nM. `Cc1cccc(-c2ncc(N)cc2-c2ccc3ncsc3c2)c1` [Compound 20, 5-(Benzo[d]thiazol-6-yl)-6-m-tolylpyridin-3-amine]: the IC50 amounted to 104 nM.

With `Cc1cc(-c2nc(N)ccc2-c2ccc3[nH]ncc3c2)ccc1F` [Compound 21, 6-(4-Fluoro-3-methylphenyl)-5-(1H-indazol-5-yl)pyridin-2-amine], the IC50 was found to be 1920 nM. For `Nc1ccc(-c2ccc3[nH]ncc3c2)c(-c2cccc(C3CC3)c2)n1` [Compound 22, 6-(3-Cyclopropylphenyl)-5-(1H-indazol-5-yl)pyridin-2-amine], the IC50 amounted to 1410 nM.

Consider `Cc1cccc(-c2nc(N)ccc2-c2ccc3[nH]ncc3c2)c1` [Compound 23, 5-(1H-Indazol-5-yl)-6-m-tolylpyridin-2-amine], for which the IC50 stood at 2240 nM. For `CC(=O)Nc1cnc(-c2ccc(F)c(C)c2)c(-c2ccc3[nH]ncc3c2)c1` [Compound 24, N-(6-(4-Fluoro-3-methylphenyl)-5-(1H-indazol-5-yl)pyridin-3-yl)acetamide], the IC50 was determined as 671 nM. Take `CC(=O)Nc1cnc(-c2cccc(C3CC3)c2)c(-c2ccc3[nH]ncc3c2)c1` [Compound 25, N-(6-(3-Cyclopropylphenyl)-5-(1H-indazol-5-yl)pyridin-3-yl)acetamide]: the IC50 turned out to be 612 nM. As to `Cc1cc(-c2nc(N)ccc2-c2ccc3ncsc3c2)ccc1F` [Compound 27, 5-(Benzo[d]thiazol-6-yl)-6-(4-fluoro-3-methylphenyl)pyridin-2-amine], the IC50 was 453 nM. In the case of `Nc1ccc(-c2ccc3ncsc3c2)c(-c2cccc(C3CC3)c2)n1` [Compound 28, 5-(Benzo[d]thiazol-6-yl)-6-(3-cyclopropylphenyl)pyridin-2-amine], the IC50 is 1750 nM. In the case of `Cc1cccc(-c2nc(N)ccc2-c2ccc3ncsc3c2)c1` [Compound 29, 5-(Benzo[d]thiazol-6-yl)-6-m-tolylpyridin-2-amine], the IC50 came out at 1450 nM.

Regarding `Cc1cc(-c2ncc(NS(C)(=O)=O)cc2-c2ccc3[nH]ncc3c2)ccc1F` [Compound 30, N-(6-(4-Fluoro-3-methylphenyl)-5-(1H-indazol-5-yl)pyridin-3-yl)methanesulfonamide], the IC50 turned out to be 3700 nM.

Take `CS(=O)(=O)Nc1cnc(-c2cccc(C3CC3)c2)c(-c2ccc3[nH]ncc3c2)c1` [Compound 31, N-(6-(3-Cyclopropylphenyl)-5-(1H-indazol-5-yl)pyridin-3-yl) methanesulfonamide]: the IC50 was found to be 1900 nM. With `Cc1cccc(-c2ncc(NS(C)(=O)=O)cc2-c2ccc3[nH]ncc3c2)c1` [Compound 32, N-(5-(1H-Indazol-5-yl)-6-m-tolylpyridin-3-yl) methanesulfonamide], the IC50 was found to be 2800 nM. Regarding `Cc1cc(-c2ncccc2-c2ccc3ncn(CCN4CCOCC4)c3c2)ccc1F` [Compound 35, 6-(2-(4-Fluoro-3-methylphenyl)pyridin-3-yl)-1-(2-morpholinoethyl)-1H-benzo[d]imidazole], the IC50 worked out at 10800 nM. In the case of `Cc1cccc(-c2ncccc2-c2ccc3ncn(CCN4CCOCC4)c3c2)c1` [Compound 36, 1-(2-Morpholinoethyl)-6-(2-m-tolylpyridin-3-yl)-1H-benzo[d]imidazole], the IC50 came out at 19700 nM. Consider `Cc1cc(-c2ncccc2-c2ccc3ncn(CCN4CCN(C)CC4)c3c2)ccc1F` [Compound 37, 6-(2-(4-Fluoro-3-methylphenyl)pyridin-3-yl)-1-(2-(4-methylpiperazin-1-yl)ethyl)-1H-benzo[d]imidazole], for which the IC50 came out at 18100 nM. As for `CCOCCCn1cnc2ccc(-c3cccnc3-c3cccc(C)c3)cc21` [Compound 39, 1-(3-Ethoxypropyl)-6-(2-m-tolylpyridin-3-yl)-1H-benzo[d]imidazole], the IC50 was 14300 nM.
